For series [1], the system named is MX1. Put plainly: Antitumor activity against human MX1 cells xenografted athymic nude Ncr nu/nu mouse assessed as inhibition of tumor volume at 10 ug/day, sc after 3 weeks. The series is classed as functional. Background: A xenograft is tissue or cells of one species grown in another, often human tumour cells in immunodeficient mice.
Series [2] deals with MX1. In words: Antitumor activity against human MX1 cells xenografted athymic nude Ncr nu/nu mouse assessed as inhibition of tumor weight at 10 ug/day, sc after 3 weeks. In kind it is functional.
Series [3] concerns Mus musculus. In words: Toxicity in human MX1 cells xenografted athymic nude Ncr nu/nu mouse assessed as body weight at 10 ug/day, sc after 24 days relative to control. The series is classed as organism-based. The settings on record: in vivo, 576 h.
In series [4] the test system is MX1. Put plainly: Antitumor activity against human MX1 cells xenografted athymic nude Ncr nu/nu mouse assessed as inhibition of tumor volume at 20 mg/kg, ip after 8 days. In kind it is functional. The settings on record: 192 h, route intraperitoneal.
The subject of series [5] is MX1. In words: Antitumor activity against human MX1 cells xenografted athymic nude Ncr nu/nu mouse assessed as inhibition of tumor volume at 20 mg/kg, ip after 3 weeks. In kind it is functional. The settings on record: 504 h, route intraperitoneal.
Series [6] has as its target T1, Growth hormone-releasing hormone receptor (Homo sapiens, UniProt Q02643).
T1 sequence (Q02643 whole entry): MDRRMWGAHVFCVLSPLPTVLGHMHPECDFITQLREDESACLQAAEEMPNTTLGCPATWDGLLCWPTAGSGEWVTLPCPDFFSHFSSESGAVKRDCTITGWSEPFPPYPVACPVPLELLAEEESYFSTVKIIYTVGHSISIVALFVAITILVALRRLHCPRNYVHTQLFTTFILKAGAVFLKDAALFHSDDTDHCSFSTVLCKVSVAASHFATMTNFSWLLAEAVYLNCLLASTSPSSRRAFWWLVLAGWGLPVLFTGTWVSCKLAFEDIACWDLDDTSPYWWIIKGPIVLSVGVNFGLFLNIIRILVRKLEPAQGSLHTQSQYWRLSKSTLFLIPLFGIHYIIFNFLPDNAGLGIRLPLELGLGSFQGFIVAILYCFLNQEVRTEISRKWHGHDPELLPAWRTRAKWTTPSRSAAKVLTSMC
In words: Displacement of [125I]JV1-42 from GHRH receptor expressed in human MX1 cells. In kind it is cell-based.

Series [7] deals with Mus musculus. In words: Toxicity in human MX1 cells xenografted athymic nude Ncr nu/nu mouse assessed as body weight at 20 mg/kg, ip after 24 days relative to control. On the set-up: dose 20 mg/kg, route intraperitoneal. The series is classed as organism-based. Particulars: in vivo, 576 h.
Series [8] addresses Epidermal growth factor receptor (Homo sapiens, UniProt P00533). In words: Displacement of radiolabeled EGF from EGF receptor expressed in human MX1 cells. In kind it is cell-based.
Series [9] has as its system MX1. In words: Antitumor activity against human MX1 cells xenografted athymic nude Ncr nu/nu mouse assessed as inhibition of tumor weight at 20 mg/kg, ip after 15 days. The series is classed as functional. Particulars: 360 h, route intraperitoneal.

Chain of Epidermal growth factor receptor (P00533 whole entry): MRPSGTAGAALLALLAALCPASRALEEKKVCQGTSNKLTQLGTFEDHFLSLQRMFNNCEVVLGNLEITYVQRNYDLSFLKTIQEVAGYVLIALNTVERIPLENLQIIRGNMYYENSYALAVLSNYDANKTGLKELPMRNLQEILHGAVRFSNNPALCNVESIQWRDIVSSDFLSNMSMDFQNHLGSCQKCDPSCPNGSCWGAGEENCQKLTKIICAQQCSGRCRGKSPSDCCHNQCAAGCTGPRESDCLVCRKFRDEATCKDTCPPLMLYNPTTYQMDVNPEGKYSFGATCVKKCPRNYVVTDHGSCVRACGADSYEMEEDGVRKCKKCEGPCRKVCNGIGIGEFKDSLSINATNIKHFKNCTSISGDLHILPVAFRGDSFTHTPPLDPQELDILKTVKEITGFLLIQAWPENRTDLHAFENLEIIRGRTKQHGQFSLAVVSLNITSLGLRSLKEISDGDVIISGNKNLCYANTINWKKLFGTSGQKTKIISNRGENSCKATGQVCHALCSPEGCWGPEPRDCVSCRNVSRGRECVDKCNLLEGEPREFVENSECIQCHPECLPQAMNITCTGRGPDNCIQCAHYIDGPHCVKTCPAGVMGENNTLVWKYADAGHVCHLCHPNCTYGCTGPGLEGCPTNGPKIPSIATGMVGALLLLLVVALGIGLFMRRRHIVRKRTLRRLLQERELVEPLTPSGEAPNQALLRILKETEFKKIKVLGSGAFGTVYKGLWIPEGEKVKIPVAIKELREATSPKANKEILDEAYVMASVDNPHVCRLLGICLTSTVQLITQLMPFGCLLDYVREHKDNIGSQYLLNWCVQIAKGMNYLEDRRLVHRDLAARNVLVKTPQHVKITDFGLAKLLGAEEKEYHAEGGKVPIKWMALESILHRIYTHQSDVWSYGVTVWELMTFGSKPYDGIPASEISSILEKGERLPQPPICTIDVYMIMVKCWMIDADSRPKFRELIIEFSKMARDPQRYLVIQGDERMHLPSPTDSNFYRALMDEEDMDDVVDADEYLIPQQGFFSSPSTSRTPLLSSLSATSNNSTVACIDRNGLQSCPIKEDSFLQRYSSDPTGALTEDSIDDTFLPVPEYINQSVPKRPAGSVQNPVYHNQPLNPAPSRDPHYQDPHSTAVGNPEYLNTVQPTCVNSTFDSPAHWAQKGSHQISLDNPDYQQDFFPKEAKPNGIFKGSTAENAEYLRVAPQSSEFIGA

One may read the Inhibition as the change of the read-out against control, counted positive when it falls. Turning to `CCCC[C@H](NC(=O)[C@@H](NC(=O)[C@H](CC(=O)O)NC(=O)[C@H](CCC(N)=O)NC(=O)[C@H](CC(C)C)NC(=O)[C@H](CC(C)C)NC(=O)[C@H](CCCCN)NC(=O)[C@H](Cc1cnc[nH]1)NC(=O)[C@H](C)NC(=O)[C@H](CO)NC(=O)[C@H](CC(C)C)NC(=O)[C@H](CCC(N)=O)NC(=O)[C@H](CC)NC(=O)[C@H](CC(C)C)NC(=O)[C@@H](NC(=O)[C@H](CCCCN)NC(=O)[C@H](Cc1cnc[nH]1)NC(=O)[C@H](Cc1ccc(OC)cc1)NC(=O)[C@H](CCCCNC(=N)N)NC(=O)[C@H](C)NC(=O)[C@@H](NC(=O)[C@H](Cc1ccc(Cl)cc1)NC(=O)[C@@H](NC(=O)[C@H](C)NC(=O)[C@H](CC(=O)O)NC(=O)[C@@H](CCCNC(=N)N)NC(=O)[C@H](Cc1ccc(O)cc1)NC(=O)Cc1ccccc1)[C@@H](C)CC)[C@@H](C)O)C(C)C)[C@@H](C)CC)C(=O)N[C@H](CCCNC(=N)N)C(=O)N[C@@H](CCCCNC(=N)N)C(N)=O` [listing 1 of 2 here], the results for the Inhibition in the series on MX1 [1] and in the series with MX1 [2] were 62.9% and 47.8%, respectively.
With `CCCC[C@H](NC(=O)[C@@H](NC(=O)[C@H](CC(=O)O)NC(=O)[C@H](CCC(N)=O)NC(=O)[C@H](CC(C)C)NC(=O)[C@H](CC(C)C)NC(=O)[C@H](CCCCN)NC(=O)[C@H](Cc1cnc[nH]1)NC(=O)[C@H](C)NC(=O)[C@H](CO)NC(=O)[C@H](CC(C)C)NC(=O)[C@H](CCC(N)=O)NC(=O)[C@H](CC)NC(=O)[C@H](CC(C)C)NC(=O)[C@@H](NC(=O)[C@H](CCCCN)NC(=O)[C@H](Cc1cnc[nH]1)NC(=O)[C@H](Cc1ccc(OC)cc1)NC(=O)[C@H](CCCCNC(=N)N)NC(=O)[C@H](C)NC(=O)[C@@H](NC(=O)[C@H](Cc1ccc(Cl)cc1)NC(=O)[C@@H](NC(=O)[C@H](C)NC(=O)[C@H](CC(=O)O)NC(=O)[C@@H](CCCNC(=N)N)NC(=O)[C@H](Cc1ccc(O)cc1)NC(=O)Cc1ccccc1)[C@@H](C)CC)[C@@H](C)O)C(C)C)[C@@H](C)CC)C(=O)N[C@H](CCCNC(=N)N)C(=O)N[C@@H](CCCCNC(=N)N)C(N)=O` [listing 2 of 2 here], the Activity with Mus musculus [3] worked out at 24.6 g.
Broadly, the inhibition in vivo is the relative decrease from the control value, in per cent. In general, IC50 refers to the point on the concentration scale where inhibition reaches its midpoint. A high value points to weaker potency in that assay. In general, Kd refers to the free concentration of one partner at which half of the binding sites on the other are occupied at equilibrium, for simple one-to-one binding. Low values mean a tighter complex, high ones a looser complex. Turning to `CC(=O)O[C@@]12CO[C@@H]1C[C@H](O)[C@@]1(C)C(=O)[C@H](O)C3=C(C)[C@@H](OC(=O)[C@H](O)[C@@H](NC(=O)OC(C)(C)C)c4ccccc4)C[C@@](O)([C@@H](OC(=O)c4ccccc4)[C@H]21)C3(C)C.O.O.O` [DOCETAXEL], the figures for the inhibition in vivo at 20 mg/kg in the series with MX1 [4], in the series with MX1 [5] and with MX1 [9] were 29%, 74.1% and 58.6%, respectively. The IC50 in [6] was determined as 0.14 nM. Also, the Activity in the series with Mus musculus [7] turned out to be 24 g. The compound further came in with a Bmax in series [8] of 278 fmol/mg. This compound also returned a Kd in [8] of 0.82 nM.
The inhibition is the relative decrease from the control value, in per cent. Lower therefore signals a response near the control. In series [8], `CC[C@H](NC(=O)[C@H](CC(C)C)NC(=O)[C@@H](NC(=O)[C@H](CCCCN)NC(=O)[C@H](Cc1cnc[nH]1)NC(=O)[C@H](Cc1ccc(C)cc1)NC(=O)[C@H](CCCCNC(=N)N)NC(=O)[C@H](C)NC(=O)[C@@H](NC(=O)[C@H](Cc1ccc(Cl)cc1)NC(=O)[C@@H](NC(=O)[C@H](C)NC(=O)[C@H](CC(=O)O)NC(=O)[C@@H](CCCNC(=N)N)NC(=O)[C@H](Cc1ccc(O)cc1)NC(=O)Cc1ccccc1)[C@@H](C)CC)[C@@H](C)O)C(C)C)C(=O)N[C@@H](CCC(N)=O)C(=O)N[C@@H](CC(C)C)C(=O)N[C@@H](CO)C(=O)N[C@@H](C)C(=O)N[C@@H](Cc1cnc[nH]1)C(=O)N[C@@H](CCCCN)C(=O)N[C@@H](CC(C)C)C(=O)N[C@@H](CC(C)C)C(=O)N[C@@H](CCC(N)=O)C(=O)N[C@@H](CC(=O)O)C(=O)N[C@H](C(=O)N[C@H](C(=O)N[C@H](CCCNC(=N)N)C(=O)N[C@@H](CCCCNC(=N)N)C(N)=O)[C@@H](C)CC)[C@@H](C)CC` returned a Bmax of 92.4 fmol/mg and a Kd of 0.94 nM. The compound also showed an inhibition in [8] (concentration not given here) of 68%.

Values taken from ChEMBL document CHEMBL1147056, “Potentiation of mammary cancer inhibition by combination of antagonists of growth hormone-releasing hormone with docetaxel” (Proc Natl Acad Sci U S A, 2007).
